Data reported in article PMC10495984, “Structural basis of IRGB10 oligomerization by GTP hydrolysis” (Frontiers in Immunology, 2023).
Changes are numbered by the printed parent chain.

What was measured:
IRGB10 = molecular target: T1, IRGB10 (Mus musculus, UniProt U5NFV2); experiment: turbidity at […] nm, SEC and native PAGE of GTP-driven oligomerization; assay type: biochemical; settings: nucleotide-free protein, MgCl2, 37 °C, pH 8.0; hydrolysis inferred from oligomerization
T1 construct: recombinant from E. coli BL21(DE3), Ni-NTA purified, C-terminal LEH from plasmid kept; modelled residues 16-406
T1 sequence (U5NFV2 1-406): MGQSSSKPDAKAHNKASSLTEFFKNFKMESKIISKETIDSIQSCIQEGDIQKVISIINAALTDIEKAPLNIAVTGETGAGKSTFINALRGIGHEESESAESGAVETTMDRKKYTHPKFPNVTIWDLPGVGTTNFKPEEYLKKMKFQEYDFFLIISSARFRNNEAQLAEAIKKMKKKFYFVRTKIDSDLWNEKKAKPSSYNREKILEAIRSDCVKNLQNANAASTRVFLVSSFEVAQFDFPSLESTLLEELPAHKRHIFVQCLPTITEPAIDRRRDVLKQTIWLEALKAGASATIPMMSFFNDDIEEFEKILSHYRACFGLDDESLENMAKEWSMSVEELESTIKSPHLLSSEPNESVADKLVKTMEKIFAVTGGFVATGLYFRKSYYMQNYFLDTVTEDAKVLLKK

[1] = molecular target: the molecule itself; experiment: SEC-MALS; GDP-bound protein (endogenous E. coli GDP kept); Superdex 200 HR 10/30, 20 mM Tris-HCl pH 8.0, 150 mM NaCl

## Nc1nc2c(ncn2[C@@H]2O[C@H](COP(=O)(O)OP(=O)(O)OP(=O)(O)O)[C@@H](O)[C@H]2O)c(=O)[nH]1 [GTP]
IRGB10
  turbidity at 350 nm, SEC and native PAGE of GTP-driven oligomerization: The results of these turbidity assays indicated that GTP hydrolysis caused the oligomerization of IRGB10.

B1: Immunity-related GTPase B10 (IRGB10) (enzyme, mouse)
chain: T1 sequence (U5NFV2 1-406) with K15M, M108K, N161D, A207V
notes: IRGB10, immunity-related GTPase B10, member of the mouse IRG (p47 GTPase) family; the crystal model runs from residue 16 to residue 406 and is followed by LEH from the plasmid; nucleotide-free after a 1.5 M NaCl wash on the resin; GppNHp, GTP or GDP added afterwards; also called wildtype IRGB10; nucleotide-free IRGB10; source: E. coli BL21 (DE3), purified (Ni-NTA, SEC)
[1]
  stoichiometry N: 2
